target: T1, B1R receptor of the rat (rB1R) (Rattus norvegicus, UniProt P97583); test: Functional FLIPR Ca2+ assay on the bradykinin 1 receptor, rat (rB1R CHO K1 cells); type: cell-based; conditions: test substance 10 μM; CHO K1 cells transfected with rat B1R gene; agonist Des-Arg9-bradykinin at EC80; % inhibition compared with maximum achievable inhibition; read-out: B1R antagonism, rat [10 μM] % inhibition
T1 construct: expressed in transfected cells; host or cells: CHO K1 cells (Chinese hamster ovary), stably transfected
T1 sequence (P97583 1-337): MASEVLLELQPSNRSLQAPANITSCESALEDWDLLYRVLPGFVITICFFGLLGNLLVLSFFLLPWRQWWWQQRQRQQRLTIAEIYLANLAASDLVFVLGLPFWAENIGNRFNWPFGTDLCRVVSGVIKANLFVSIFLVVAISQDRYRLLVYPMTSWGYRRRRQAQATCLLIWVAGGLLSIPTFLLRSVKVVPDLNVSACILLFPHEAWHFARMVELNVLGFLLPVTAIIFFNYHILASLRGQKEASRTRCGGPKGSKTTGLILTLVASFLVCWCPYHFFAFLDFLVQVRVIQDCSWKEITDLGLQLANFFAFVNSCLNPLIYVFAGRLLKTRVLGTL
Method: The agonistic or antagonistic action of substances can be quantified on the bradykinin 1 receptor (B1R) of the human and rat species with ectopically expressing cell lines (CHO K1 cells) and with the aid of a Ca^2+-sensitive dyestuff (Fluo-4) in a fluorescent imaging plate reader (FLIPR). The figure in % activation is based on the Ca^2+ signal after addition of Lys-Des-Arg^9-bradykinin (0.5 nM) or Des-Arg^9-bradykinin (100 nM). Antagonists lead to a suppression of the Ca^2+ inflow after addition of the agonist. % inhibition compared with the maximum achievable inhibition is stated.
The agonistic or antagonistic action of substances can be determined on the bradykinin 1 receptor (B1R) of the human and rat species with the following assay. In accordance with this assay, the Ca^2+ inflow through the channel is quantified with the aid of a Ca^2+-sensitive dyestuff (type Fluo-4, Molecular Probes Europe BV, Leiden, Holland) in a fluorescent imaging plate reader (FLIPR, Molecular Devices, Sunnyvale, USA).
Chinese hamster ovary cells (CHO K1 cells) transfected stably with the human B1R gene (hB1R cells) or the B1R gene of the rat (rB1R cells) are used. For functional studies, these cells are plated out on black 96-well plates with a clear base (BD Biosciences, Heidelberg, Germany or Greiner, Frickenhausen, Germany) in a density of 20,000-35,000 cells/well. The cells are left overnight at 37° C. and 5% CO2 in culture medium (hB1R cells: Nutrient Mixture Ham's F12, Gibco Invitrogen GmbH, Karlsruhe, Germany or DMEM, Sigma-Aldrich, Taufkirchen, Germany; rB1R cells: D-MEM/F12, Gibco Invitrogen GmbH, Karlsruhe, Germany) with 10 vol. % FBS (foetal bovine serum, Gibco Invitrogen GmbH, Karlsruhe, Germany or PAN Biotech GmbH, Aidenbach, Germany). On the following day, the cells are loaded for 60 min at 37° C. with 2.13 μM Fluo-4 (Molecular Probes Europe BV, Leiden, Holland) in HBSS buffer (Hank's buffered saline solution, Gibco Invitrogen GmbH, Karlsruhe, Germany) with 2.5 mM probenecid (Sigma-Aldrich, Taufkirchen, Germany) and 10 mM HEPES (Sigma-Aldrich, Taufkirchen, Germany). The plates are then washed 2× with HBSS buffer, and HBSS buffer which additionally contains 0.1% BSA (bovine serum albumin; Sigma-Aldrich, Taufkirchen, Germany), 5.6 mM glucose and 0.05% gelatine (Merck KgaA, Darmstadt, Germany) is added. After a further incubation of 20 minutes at room temperature, the plates are inserted into the FLIPR for the Ca^2+ measurement.
Alternatively, the plates are washed with buffer A (15 mM HEPES, 80 mM NaCl, 5 mM KCl, 1.2 mM CaCl2, 0.7 mM MgSO4, 2 g/l glucose, 2.5 mM probenecid), buffer A is added and the plates are loaded with 2.5 μM Fluo-4 and 0.025% Pluronic F127 (Sigma-Aldrich, Taufkirchen, Germany). Thereafter, the cells are washed 2× with buffer A and incubated for 30 minutes with buffer A, which additionally contains 0.05% BSA and 0.05% gelatine, at room temperature and thereafter inserted into the FLIPR for the Ca^2+ measurement. The Ca^2+-dependent fluorescence is measured here before and after addition of substances (λex=488 nm, λem=540 nm). Quantification is by measurement of the highest fluorescence intensity (FC, fluorescence counts) over time.
The FLIPR protocol consists of 2 additions of substance. Test substances (10 μM) are first pipetted on to the cells and the Ca^2+ inflow is compared with the control (hB1R: Lys-Des-Arg^9-bradykinin >=50 nM; rB1R: Des-Arg^9-bradykinin 10 μM). This gives the figure in % activation based on the Ca^2+ signal after addition of Lys-Des-Arg^9-bradykinin (>=50 nM) or Des-Arg^9-bradykinin (10 μM). After incubation for 10-20 minutes, Lys-Des-Arg^9-bradykinin (hB1R) or Des-Arg^9-bradykinin (rB1R) in the concentration of the EC80 is applied and the inflow of Ca^2+ is likewise determined. Antagonists lead to a suppression of the Ca^2+ inflow. % inhibition compared with the maximum achievable inhibition is calculated. In order to determine the IC50 value, the substances are added in various concentrations. […]

Row | Structure (SMILES) | inhibition at 10 µM [%]
1 | Cc1cc(S(=O)(=O)N2CCCCC2CCC(=O)N2CCc3onc(C(=O)N4CCCCC4)c3C2)c(C)cc1Cl (stereo not shown) [Example 04, 3-(1-(4-chloro-2,5-dimethylphenylsulfonyl)piperidin-2-yl)-1-(3-(piperidine-1-carbonyl)-6,7-dihydroisoxazolo[4,5-c]pyridin-5(4H)-yl)propan-1-one] | 56
2 | O=C(COCC1COc2ccccc2N1S(=O)(=O)c1ccccc1C(F)(F)F)N1CCc2[nH]cnc2C1c1ccccc1 (stereo not shown) [Example 94, 1-(4-Phenyl-4,5,6,7-tetrahydro-1H-imidazo[4,5-c]pyridin-5-yl)-2-[[4-[[2-(trifluoromethyl)-phenyl]sulfonyl]-3,4-dihydro-2H-[1,4]benzoxazin-3-yl]-methoxy]-ethanone] | 36
3 | O=C(CCCC1CCCCN1S(=O)(=O)c1ccc2ccccc2c1)N1CCc2[nH]cnc2C1c1ccccc1 (stereo not shown) [Example 76, 4-[1-(Naphthalen-2-ylsulfonyl)-piperidin-2-yl]-1-(4-phenyl-4,5,6,7-tetrahydro-1H-imidazo[4,5-c]pyridin-5-yl)-butan-1-one] | 48
4 | COc1cc(C)c(S(=O)(=O)N(CCOCC(=O)N2CCc3[nH]cnc3C2c2ccccc2)Cc2ccccc2)c(C)c1 (stereo not shown) [Example 82, N-Benzyl-4-Methoxy-2,6-dimethyl-N-[2-[2-oxo-2-(4-phenyl-4,5,6,7-tetrahydro-1H-imidazo[4,5-c]pyridin-5-yl)-ethoxy]-ethyl]-benzenesulfonic acid amide] | 100
5 | COc1cc(C)c(S(=O)(=O)N2CCCCC2COCCC(=O)N2CCc3[nH]cnc3C2c2ccccc2)c(C)c1 (stereo not shown) [Example 100, 3-[[1-[(4-Methoxy-2,6-dimethyl-phenyl)sulfonyl]-piperidin-2-yl]-methoxy]-1-(4-phenyl-4,5,6,7-tetrahydro-1H-imidazo[4,5-c]pyridin-5-yl)-propan-1-one] | 101
6 | COc1cc(C)c(S(=O)(=O)N(CCOCC(=O)N2CCc3[nH]cnc3C2c2ccccc2)c2ccccc2)c(C)c1 (stereo not shown) [Example 84, 4-Methoxy-2,6-Dimethyl-N-[2-[2-oxo-2-(4-phenyl-4,5,6,7-tetrahydro-1H-imidazo[4,5-c]pyridin-5-yl)-ethoxy]-ethyl]-N-phenyl-benzenesulfonic acid amide] | 97
7 | COc1cc(C)c(S(=O)(=O)N(C)CCOCC(=O)N2CCc3[nH]cnc3C2c2ccccc2)c(C)c1 (stereo not shown) [Example 66, 4-Methoxy-N,2,6-trimethyl-N-[2-[2-oxo-2-(4-phenyl-4,5,6,7-tetrahydro-1H-imidazo[4,5-c]pyridin-5-yl)-ethoxy]-ethyl]-benzenesulfonic acid amide] | 97
8 | O=C(COCC1CCCCN1S(=O)(=O)c1ccccc1C(F)(F)F)N1CCc2[nH]cnc2C1c1ccccc1 (stereo not shown) [Example 98, 1-(4-Phenyl-4,5,6,7-tetrahydro-1H-imidazo[4,5-c]pyridin-5-yl)-2-[[1-[[2-(trifluoromethyl)-phenyl]sulfonyl]-piperidin-2-yl]-methoxy]-ethanone] | 98
9 | CN1CCN(Cc2cc3c(s2)CCN(C(=O)CCCC2CCCCN2S(=O)(=O)c2ccccc2C(F)(F)F)C3)CC1 (stereo not shown) [Example 87, 1-[2-[(4-Methyl-piperazin-1-yl)-methyl]-4,5,6,7-tetrahydro-thieno[3,2-c]pyridin-5-yl]-4-[1-[[2-(trifluoromethyl)-phenyl]sulfonyl]-piperidin-2-yl]-butan-1-one] | 103

Continued, values first:

Row | inhibition at 10 µM [%] | Structure (SMILES)
10 | 96 | CN1CCN(Cc2cc3c(s2)CCN(C(=O)COCC2CCCCN2S(=O)(=O)c2ccccc2C(F)(F)F)C3)CC1 (stereo not shown) [Example 97, 1-[2-[(4-Methyl-piperazin-1-yl)-methyl]-4,5,6,7-tetrahydro-thieno[3,2-c]pyridin-5-yl]-2-[[1-[[2-(trifluoromethyl)-phenyl]sulfonyl]-piperidin-2-yl]-methoxy]-ethanone]
11 | 93 | CN1CCN(Cc2cc3c(s2)CCN(C(=O)COCC2COc4ccccc4N2S(=O)(=O)c2ccccc2C(F)(F)F)C3)CC1 (stereo not shown) [Example 93, 1-[2-[(4-Methyl-piperazin-1-yl)-methyl]-4,5,6,7-tetrahydro-thieno[3,2-c]pyridin-5-yl]-2-[[4-[[2-(trifluoromethyl)-phenyl]sulfonyl]-3,4-dihydro-2H-[1,4]benzoxazin-3-yl]-methoxy]-ethanone]
12 | 102 | COc1cc(C)c(S(=O)(=O)N2c3ccccc3CCC2COCC(=O)N2CCc3sc(CN4CCN(C)CC4)cc3C2)c(C)c1 (stereo not shown) [Example 85, 2-[[1-[(4-Methoxy-2,6-dimethyl-phenyl)sulfonyl]-1,2,3,4-tetrahydro-quinolin-2-yl]-methoxy]-1-[2-[(4-methyl-piperazin-1-yl)-methyl]-4,5,6,7-tetrahydro-thieno[3,2-c]pyridin-5-yl]-ethanone]
13 | 98 | COc1cc(C)c(S(=O)(=O)N(CCOCC(=O)N2CCc3sc(CN4CCN(C)CC4)cc3C2)Cc2ccc3c(c2)OCOC3)c(C)c1 [Example 78, N-(4H-[1,3]Benzodioxin-7-yl-methyl)-4-methoxy-2,6-dimethyl-N-[2-[2-[2-[(4-methyl-piperazin-1-yl)-methyl]-4,5,6,7-tetrahydro-thieno[3,2-c]pyridin-5-yl]-2-oxo-ethoxy]-ethyl]-benzenesulfonic acid amide]
14 | 103 | COc1cc(C)c(S(=O)(=O)N2c3ccccc3OCC2COCC(=O)N2CCc3sc(CN4CCN(C)CC4)cc3C2)c(C)c1 (stereo not shown) [Example 91, 2-[[4-[(4-Methoxy-2,6-dimethyl-phenyl)sulfonyl]-3,4-dihydro-2H-[1,4]benzoxazin-3-yl]-methoxy]-1-[2-[(4-methyl-piperazin-1-yl)-methyl]-4,5,6,7-tetrahydro-thieno[3,2-c]pyridin-5-yl]-ethanone]
15 | 98 | COc1cc(C)c(S(=O)(=O)N2CCCCC2COCCC(=O)N2CCc3sc(CN4CCN(C)CC4)cc3C2)c(C)c1 (stereo not shown) [Example 99, 3-[[1-[(4-Methoxy-2,6-dimethyl-phenyl)sulfonyl]-piperidin-2-yl]-methoxy]-1-[2-[(4-methyl-piperazin-1-yl)-methyl]-4,5,6,7-tetrahydro-thieno[3,2-c]pyridin-5-yl]-propan-1-one]
16 | 99 | CN1CCN(Cc2cc3c(s2)CCN(C(=O)CCCC2CCCCN2S(=O)(=O)c2cccc4ccccc24)C3)CC1 (stereo not shown) [Example 73, 1-[2-[(4-Methyl-piperazin-1-yl)-methyl]-4,5,6,7-tetrahydro-thieno[3,2-c]pyridin-5-yl]-4-[1-(naphthalen-1-ylsulfonyl)-piperidin-2-yl]-butan-1-one]
